Experiments:
[1] = target: EGFR WT (Homo sapiens (Human), UniProt P00533); test: EGFR biochemical assay (AssayQuant chelation-enhanced fluorescence); conditions: 30 min preincubation, reaction time 360 min
[2] = target: EGFR WT in Ba/F3 cells (Homo sapiens (Human), UniProt P00533); test: Ba/F3 pEGFR assay (AlphaLISA p-EGFR Tyr1068); format: cell-based; conditions: 2 hrs treatment, media supplemented with EGF
Procedure: Cellular activity was determined using the Ba/F3 system for studying oncogenic mutant kinases (Warmuth 2007). […] Transduced cells were maintained in RPMI 1640 with 10% FBS. EGFR WT transduced cells were grown in media supplemented with EGF. To assay cellular activity of inhibitors, cells were treated with inhibitor from 1000X DMSO stock dilutions and incubated for 2 hrs at 37° C. 5% CO2. Subsequently, p-EGFR (Tyr1068) was quantified using a commercial sandwich immunoassay (PerkinElmer AlphaLISA SureFire assay; ALSU-PEGFR) according to the manufacturer's instructions. […] Curr Opin Oncol 19, 55-60 (2007), which is incorporated herein in its entirety.

Chain of EGFR WT in Ba/F3 cells (P00533 25-1210): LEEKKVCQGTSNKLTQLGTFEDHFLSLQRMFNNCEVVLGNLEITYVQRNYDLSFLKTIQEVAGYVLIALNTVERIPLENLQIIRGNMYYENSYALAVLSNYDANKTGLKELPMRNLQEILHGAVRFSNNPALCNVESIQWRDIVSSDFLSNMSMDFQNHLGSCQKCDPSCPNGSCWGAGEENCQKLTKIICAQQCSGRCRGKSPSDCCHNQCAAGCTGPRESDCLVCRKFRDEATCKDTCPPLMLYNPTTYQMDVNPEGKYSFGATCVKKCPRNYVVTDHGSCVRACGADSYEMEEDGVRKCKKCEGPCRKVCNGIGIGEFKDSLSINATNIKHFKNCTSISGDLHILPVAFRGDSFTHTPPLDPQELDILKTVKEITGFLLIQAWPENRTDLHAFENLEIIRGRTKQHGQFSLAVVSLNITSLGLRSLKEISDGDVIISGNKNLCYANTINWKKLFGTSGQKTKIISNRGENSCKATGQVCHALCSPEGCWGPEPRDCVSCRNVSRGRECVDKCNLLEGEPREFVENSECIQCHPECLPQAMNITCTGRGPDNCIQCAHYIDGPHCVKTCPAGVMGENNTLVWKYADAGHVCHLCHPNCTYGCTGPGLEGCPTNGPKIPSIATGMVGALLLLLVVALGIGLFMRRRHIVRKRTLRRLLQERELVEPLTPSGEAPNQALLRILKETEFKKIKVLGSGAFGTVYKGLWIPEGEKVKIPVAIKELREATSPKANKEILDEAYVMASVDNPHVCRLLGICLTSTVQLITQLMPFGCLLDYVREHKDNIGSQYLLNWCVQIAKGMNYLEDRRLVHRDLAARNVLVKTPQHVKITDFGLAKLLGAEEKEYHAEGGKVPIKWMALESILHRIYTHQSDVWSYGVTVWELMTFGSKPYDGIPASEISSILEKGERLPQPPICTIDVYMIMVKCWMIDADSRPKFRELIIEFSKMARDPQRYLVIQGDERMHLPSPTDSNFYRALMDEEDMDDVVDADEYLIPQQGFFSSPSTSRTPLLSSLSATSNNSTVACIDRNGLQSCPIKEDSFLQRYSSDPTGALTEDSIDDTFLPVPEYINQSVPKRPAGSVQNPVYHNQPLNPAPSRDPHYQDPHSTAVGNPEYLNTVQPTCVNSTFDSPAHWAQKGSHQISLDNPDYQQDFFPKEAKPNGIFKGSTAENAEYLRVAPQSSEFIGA
Chain of EGFR WT (P00533 668-1210): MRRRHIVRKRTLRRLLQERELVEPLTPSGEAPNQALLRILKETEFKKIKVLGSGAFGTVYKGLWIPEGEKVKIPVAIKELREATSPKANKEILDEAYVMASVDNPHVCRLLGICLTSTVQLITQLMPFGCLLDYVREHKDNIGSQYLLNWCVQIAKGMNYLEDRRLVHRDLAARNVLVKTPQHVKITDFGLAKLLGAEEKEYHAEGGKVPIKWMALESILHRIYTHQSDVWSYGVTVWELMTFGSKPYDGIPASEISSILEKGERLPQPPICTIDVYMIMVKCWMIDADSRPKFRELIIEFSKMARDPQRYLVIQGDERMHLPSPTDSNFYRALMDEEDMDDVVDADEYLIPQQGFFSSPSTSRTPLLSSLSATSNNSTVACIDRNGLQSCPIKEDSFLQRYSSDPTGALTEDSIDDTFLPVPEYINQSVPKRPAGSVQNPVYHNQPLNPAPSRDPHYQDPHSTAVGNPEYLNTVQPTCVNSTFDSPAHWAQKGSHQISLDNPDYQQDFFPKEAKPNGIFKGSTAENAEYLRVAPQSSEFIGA

Row | SMILES | IC50 [1] | IC50 [2]
1 | COC(=O)Nc1cccc(C#Cc2cc(C(=O)/N=c3\[nH]c4ccc(CN5CCN(C)CC5)cc4n3CC(C)(C)O)ccn2)c1C=O [Compound 84] | 61 nM | 879 nM
2 | CN1CCN(Cc2ccc3[nH]/c(=N\C(=O)c4ccnc(C#Cc5cc(F)cc(O)c5C=O)c4)n(CC(C)(C)O)c3c2)CC1 [Compound 89] | 49.1 nM | > 5820 nM
3 | CN1CCN(Cc2ccc3[nH]/c(=N\C(=O)c4ccnc(C#Cc5cccc(NC(=O)C6CC6)c5C=O)c4)n(CC(C)(C)O)c3c2)CC1 [Compound 87] | 42 nM | 267 nM
4 | CN1CCN(Cc2ccc3[nH]/c(=N\C(=O)c4ccc(Oc5cccc(O)c5C=O)cc4)n(CC(C)(C)O)c3c2)CC1 [Compound 105] | 280 nM | > 10000 nM
5 | O=Cc1c(O)cccc1Oc1cc(C(=O)/N=c2\[nH]c3ccccc3n2[C@H]2CC[C@@H](O)CC2)ccn1 [Compound 122] | 8.24 nM | 5260 nM
6 | COc1cc(N2CCC(N3CCN(C)CC3)CC2)ccc1Nc1ncc(-c2ccc(O)c(C=O)c2)c(Oc2ccccc2)n1 [Compound 21] | 271 nM | 
7 | COc1cc(N(C)CCN(C)C)ccc1Nc1ncc(Cl)c(-c2cn(Cc3cccc(C=O)c3O)c3ccccc23)n1 [Compound 31] | > 1000 nM | 
8 | CN1CCN(Cc2ccc3[nH]/c(=N\C(=O)c4cccc(Oc5cccc(O)c5C=O)n4)n(CC(C)(C)O)c3c2)CC1 [Compound 93] | 490 nM | > 10000 nM
9 | CN(C)C/C=C/C(=O)N1CCCC[C@@H](n2c(NC(=O)c3ccnc(Oc4cccc(O)c4C=O)c3)nc3cccc(Cl)c32)C1 [Compound 126] | 13 nM | 2030 nM
10 | CN1CCN(Cc2ccc3[nH]/c(=N\C(=O)c4ccnc(-c5ccn(-c6cccc(O)c6C=O)n5)c4)n(CC(C)(C)O)c3c2)CC1 [Compound 94] | 444 nM | > 10000 nM
11 | CC(C)(O)Cn1/c(=N/C(=O)c2ccnc(Oc3cccc(O)c3C=O)c2)[nH]c2ccc(N3CCC(C(C)(C)O)CC3)cc21 [Compound 70] | 11.5 nM | 4580 nM
12 | COc1cc(N2CCC(N3CCN(C)CC3)CC2)ccc1Nc1ncc(Cl)c(Nc2ccccc2-c2c(OC)ccc(C=O)c2O)n1 [Compound 34] | 278 nM | 
13 | COc1cc(N2CCC(N3CCN(C)CC3)CC2)ccc1Nc1ncc(-c2ccc(O)c(C=O)c2)c(Nc2ccccc2P(C)(C)=O)n1 [Compound 27] | > 1000 nM | 
14 | CN1CCN(Cc2ccc3[nH]/c(=N\C(=O)c4ccnc(OCc5cccc(O)c5C=O)c4)n(CC(C)(C)O)c3c2)CC1 [Compound 112] | > 1000 nM | 9870 nM
15 | COc1cc(N2CCC(N3CCN(C)CC3)CC2)ccc1Nc1ncc(-c2ccc(O)c(C=O)c2F)c(Nc2ccccc2)n1 [Compound 11] | 11 nM | 70.8 nM
16 | CC(=O)Nc1cccc(C#Cc2cc(C(=O)/N=c3\[nH]c4ccc(CN5CCN(C)CC5)cc4n3CC(C)(C)O)ccn2)c1C=O [Compound 90] | 85.4 nM | 950 nM
17 | CN1CCN(Cc2ccc3[nH]/c(=N\C(=O)c4cc(Oc5cccc(O)c5C=O)c5sccc5c4)n(CC(C)(C)O)c3c2)CC1 [Compound 107] | 8.71 nM | 2980 nM
18 | CN1CCN(Cc2ccc3[nH]/c(=N\C(=O)c4ccnc(-n5ccc(-c6cccc(O)c6C=O)n5)c4)n(CC(C)(C)O)c3c2)CC1 [Compound 83] | 131 nM | > 10000 nM
19 | CN1CCN(Cc2ccc3[nH]/c(=N\C(=O)c4ccnc(C#Cc5cccc(N)c5C=O)c4)n(CC(C)(C)O)c3c2)CC1 [Compound 99] | 129 nM | 1290 nM
20 | CN1CCN(Cc2ccc3[nH]/c(=N\C(=O)c4ccnc(N(C)Cc5cccc(O)c5C=O)c4)n(CC(C)(C)O)c3c2)CC1 [Compound 96] | 508 nM | 
21 | COc1cc(N(C)CCN(C)C)ccc1Nc1ncc(Cl)c(-c2cn(Cc3cccc(O)c3C=O)c3ccccc23)n1 [Compound 32] | 526 nM | 
22 | Cc1cc(Oc2cccc(O)c2C=O)cc(C(=O)/N=c2\[nH]c3ccc(CN4CCN(C)CC4)cc3n2CC(C)(C)O)c1 [Compound 61] | 17.9 nM | > 10000 nM
23 | CC(C)c1ccc(N2CC(CS(C)(=O)=O)C2)c2cnc(Nc3ccnc(-c4cccc(-c5cccc(O)c5C=O)c4)n3)cc12 [Compound 46] | > 1000 nM | 
24 | CN1CCN(Cc2ccc3[nH]/c(=N\C(=O)c4cc(F)cc(Oc5cccc(O)c5C=O)c4)n(CC(C)(C)O)c3c2)CC1 [Compound 53] | 5.97 nM | > 8180 nM
25 | CC(=O)Nc1cccc(Oc2cc(C(=O)/N=c3\[nH]c4ccc(CN5CCN(C)CC5)cc4n3CC(C)(C)O)ccn2)c1C=O [Compound 98] | 148 nM | 1830 nM
26 | COc1cc(N2CCC(N3CCN(C)CC3)CC2)ccc1Nc1ncc(-c2cccc(C=O)c2)c(Nc2ccccc2)n1 [Compound 14] | 63.4 nM | > 10000 nM
27 | CC(C)c1ccc(N2CC(CS(C)(=O)=O)C2)c2cnc(Nc3ccnc(COc4cccc(O)c4C=O)n3)cc12 [Compound 42] | 181 nM | > 10000 nM

Row | SMILES | IC50 [1] | IC50 [2]
28 | CC(C)c1ccc(N2CC(CS(C)(=O)=O)C2)c2cnc(Nc3ccnc(N(C)Cc4cccc(O)c4C=O)n3)cc12 [Compound 43] | > 1000 nM | 
29 | COc1cc(N2CCC(N3CCN(C)CC3)CC2)ccc1Nc1ncc(C#Cc2cccc(O)c2C=O)c(Nc2ccccc2)n1 [Compound 18] | 9.08 nM | 
30 | COc1cc(N2CCC(N3CCN(C)CC3)CC2)ccc1Nc1ncc(-c2ccc(O)c(C=O)c2)c(-c2ccccc2)n1 [Compound 22] | 211 nM | 
31 | Cc1ccc(C(=O)/N=c2\[nH]c3ccc(CN4CCN(C)CC4)cc3n2CC(C)(C)O)cc1Oc1cccc(O)c1C=O [Compound 59] | 9.32 nM | 1130 nM
32 | CN1CCN(Cc2ccc3[nH]/c(=N\C(=O)c4ccnc(Oc5c(F)ccc(O)c5C=O)c4)n(CC(C)(C)O)c3c2)CC1 [Compound 68] | 9.73 nM | 3470 nM
33 | CN1CCN(Cc2ccc3[nH]/c(=N\C(=O)c4cc(C=O)cc(Oc5cccc(O)c5C=O)c4)n(CC(C)(C)O)c3c2)CC1 [Compound 58] | 10.3 nM | > 10000 nM
34 | COc1cc(N(C)CCN(C)C)ccc1Nc1ncc(-c2ccc(O)c(C=O)c2)c(-c2cn(C)c3ccccc23)n1 [Compound 8] | > 1000 nM | > 10000 nM
35 | CN1CCN(Cc2ccc3[nH]/c(=N\C(=O)c4ccc(Oc5cccc(O)c5C=O)s4)n(CC(C)(C)O)c3c2)CC1 [Compound 73] | 10.1 nM | 5000 nM
36 | CN1CCN(Cc2ccc3[nH]/c(=N\C(=O)c4cccc(Oc5cccc(O)c5C=O)c4)n(CC(C)(C)O)c3c2)CC1 [Compound 52] | 8.42 nM | 4860 nM
37 | CN1CCN(Cc2ccc3[nH]/c(=N\C(=O)c4ccnc(N5CC(Oc6cccc(O)c6C=O)C5)c4)n(CC(C)(C)O)c3c2)CC1 [Compound 104] | 344 nM | > 10000 nM
38 | CC(=O)Nc1cccc(C#Cc2cc(C(=O)/N=c3\[nH]c4ccc(CN5CCN(C)CC5)cc4n3CC(C)(C)O)cc(C)n2)c1C=O [Compound 97] | 115 nM | 7950 nM
39 | CN1CCN(Cc2ccc3[nH]/c(=N\C(=O)c4ccnc(Oc5cc(F)cc(O)c5C=O)c4)n(CC(C)(C)O)c3c2)CC1 [Compound 66] | 18.6 nM | 2950 nM
40 | CC(C)(O)Cn1/c(=N/C(=O)c2ccnc(Oc3cccc(O)c3C=O)c2)[nH]c2ccc(CN3CC(C(C)(C)O)C3)cc21 [Compound 63, (E)-2-(2-formyl-3-hydroxyphenoxy)-N-(1-(2-hydroxy-2-methylpropyl)-6-((3-(2-hydroxypropan-2-yl)azetidin-1-yl)methyl)-1,3-dihydro-2H-benzo[d]imidazol-2-ylidene)isonicotinamide] | 8.55 nM | 4090 nM
41 | Cc1cc(C(=O)/N=c2\[nH]c3ccc(CN4CCN(C)CC4)cc3n2CC(C)(C)O)cc(-n2cc(-c3cccc(O)c3C=O)cn2)n1 [Compound 102] | 348 nM | > 10000 nM
42 | COc1cc(N2CCC(N3CCN(C)CC3)CC2)ccc1Nc1ncc(Cl)c(Oc2ccccc2-c2cccc(O)c2C=O)n1 [Compound 19] | > 1000 nM | 
43 | COc1cc(N(C)CCN(C)C)c(NC(C)=O)cc1Nc1nccc(-c2cn(Cc3ccc(O)c(C=O)c3)c3ccccc23)n1 [Compound 30] | 255 nM | 
44 | COc1cc(N2CCC(N3CCN(C)CC3)CC2)ccc1Nc1ncc(C#Cc2cccc(C=O)c2O)c(Nc2ccccc2)n1 [Compound 16] | 36.4 nM | 
45 | CC(C)c1ccc(N2CC(CS(C)(=O)=O)C2)c2cnc(Nc3ccnc(-c4cccc(C=O)c4O)n3)cc12 [Compound 50] | > 1000 nM | 
46 | CC(C)c1ccc(N2CC(CS(C)(=O)=O)C2)c2cnc(Nc3ccnc(C#Cc4cccc(O)c4C=O)n3)cc12 [Compound 41] | 22.2 nM | 
47 | CC(C)c1ccc(N2CC(CS(C)(=O)=O)C2)c2cnc(Nc3ccnc(-c4ccc(O)c(C=O)c4)n3)cc12 [Compound 47] | > 1000 nM | 
48 | COc1cc(N2CCC(N3CCN(C)CC3)CC2)ccc1Nc1ncc(Cl)c(Nc2cccc(-c3cccc(C=O)c3O)c2)n1 [Compound 25] | 87.5 nM | 
49 | COc1cc(N2CCC(N3CCN(C)CC3)CC2)ccc1Nc1ncc(-c2ccc(C=O)c(O)c2)c(Nc2ccccc2P(C)(C)=O)n1 [Compound 24] | 10.8 nM | 
50 | COc1cc(N2CCC(N3CCN(C)CC3)CC2)ccc1Nc1ncc(C#Cc2ccc(O)c(C=O)c2)c(Nc2ccccc2)n1 [Compound 17] | 98.4 nM | 
51 | COc1cc(N2CCC(N3CCN(C)CC3)CC2)ccc1Nc1ncc(Cl)c(Nc2cccc(-c3cccc(O)c3C=O)c2)n1 [Compound 26] | 872 nM | 
52 | COc1cc(N2CCC(N3CCN(C)CC3)CC2)ccc1Nc1ncc(Cl)c(Nc2ccc(NCc3ccc(C=O)c(O)c3)cc2)n1 [Compound 33] | 76.5 nM | 
53 | CC(C)(O)Cn1/c(=N/C(=O)c2ccnc(C#Cc3cccc(C=O)c3O)c2)[nH]c2ccccc21 [Compound 137] | > 1000 nM | 

From US20240409609A1, “REVERSIBLE LYSINE COVALENT MODIFIERS OF EGFR AND USES THEREOF” (Terremoto Biosciences, Inc., priority 2021, published 2024)
